One molecule from PMC5218480 (PLoS ONE, 2017) can be followed below.

This assay deals with MV-4-11 cells. The experiment in a line: Gene expression microarray analysis (Affymetrix PrimeView) and GSEA. Type of assay: cell-based, human. Set-up: RFU PODN (11730768_x_at) / Fold change /veh PODN (11730768_x_at) / RFU LINC00158 (11744669_a_at) / Fold change /veh LINC00158 (11744669_a_at) / RFU DUSP10 (11751237_a_at) / Fold change /veh DUSP10 (11751237_a_at) / RFU ID3 (11757404_x_at) / Fold change /veh ID3 (11757404_x_at) / RFU PLEKHG5 (11737974_s_at) / Fold change /veh PLEKHG5 (11737974_s_at) / RFU LRRC4B (11730491_at) / Fold change /veh LRRC4B (11730491_at) / RFU GIMAP4 (11747438_a_at) / Fold change /veh GIMAP4 (11747438_a_at) / RFU KRT8 (11758183_x_at) / Fold change /veh KRT8 (11758183_x_at) / RFU CNN1 (11734310_a_at) / Fold change /veh CNN1 (11734310_a_at) / RFU VPS37D (11726825_at) / Fold change /veh VPS37D (11726825_at) / RFU C10orf10 (11716522_x_at) / Fold change /veh C10orf10 (11716522_x_at) / RFU KIR2DL2 /// KIR2DL4 /// KIR2DL5A /// KIR2DL5B /// KIR2DS1 /// KIR2DS2 /// KIR2DS3 /// KIR2DS4 /// KIR3DL3 /// KIR3DL3 /// KIR3DS1 (11738374_at) / Fold change /veh KIR2DL2 /// KIR2DL4 /// KIR2DL5A /// KIR2DL5B /// KIR2DS1 /// KIR2DS2 /// KIR2DS3 /// KIR2DS4 /// KIR3DL3 /// KIR3DL3 /// KIR3DS1 (11738374_at) / RFU C1QL1 (11718748_at) / Fold change /veh C1QL1 (11718748_at) / RFU TMPRSS4 (11747572_a_at) / Fold change /veh TMPRSS4 (11747572_a_at) / RFU HAMP (11756126_x_at) / Fold change /veh HAMP (11756126_x_at) / RFU RNFT2 (11725882_a_at) / Fold change /veh RNFT2 (11725882_a_at) / RFU NR4A2 (11747474_a_at) / Fold change /veh NR4A2 (11747474_a_at) / RFU ABCC12 (11746883_a_at) / Fold change /veh ABCC12 (11746883_a_at) / RFU TMEM136 (11760407_x_at) / Fold change /veh TMEM136 (11760407_x_at) / RFU CLDN22 /// WWC2 (11732394_at) / Fold change /veh CLDN22 /// WWC2 (11732394_at) / RFU HLA-DPB1 (11760878_x_at) / Fold change /veh HLA-DPB1 (11760878_x_at) / RFU SPINT1 (11716480_a_at) / Fold change /veh SPINT1 (11716480_a_at) / RFU GAP43 (11754022_s_at) / Fold change /veh GAP43 (11754022_s_at) / RFU A4GNT (11735810_at) / Fold change /veh A4GNT (11735810_at) / RFU PRB3 (11715151_x_at) / Fold change /veh PRB3 (11715151_x_at) / RFU TUBB4B (11761932_at) / Fold change /veh TUBB4B (11761932_at) / RFU CAPN14 (11732068_a_at) / Fold change /veh CAPN14 (11732068_a_at) / RFU TMCC2 (11721928_a_at) / Fold change /veh TMCC2 (11721928_a_at) / RFU IRGQ (11745062_a_at) / Fold change /veh IRGQ (11745062_a_at) / RFU FAM174B (11720279_a_at) / Fold change /veh FAM174B (11720279_a_at) / RFU TMPRSS4 (11748680_a_at) / Fold change /veh TMPRSS4 (11748680_a_at) / RFU FAM212B (11763350_a_at) / Fold change /veh FAM212B (11763350_a_at) / RFU PLEKHG5 (11743358_a_at) / Fold change /veh PLEKHG5 (11743358_a_at) / RFU ZSCAN30 (11745921_a_at) / Fold change /veh ZSCAN30 (11745921_a_at) / RFU CMKLR1 (11741424_a_at) / Fold change /veh CMKLR1 (11741424_a_at) / RFU LOC101060620 /// MAPK8IP1 (11723275_at) / Fold change /veh LOC101060620 /// MAPK8IP1 (11723275_at) / RFU SPTSSB (11747773_x_at) / Fold change /veh SPTSSB (11747773_x_at) / RFU PRSS12 (11739890_at) / Fold change /veh PRSS12 (11739890_at) / RFU BIN1 (11741810_x_at) / Fold change /veh BIN1 (11741810_x_at) / RFU WNT11 (11732464_a_at) / Fold change /veh WNT11 (11732464_a_at) / RFU C10orf10 (11716521_a_at) / Fold change /veh C10orf10 (11716521_a_at) / RFU C5orf56 (11738089_at) / Fold change /veh C5orf56 (11738089_at) / RFU CYB561 (11721691_x_at) / Fold change /veh CYB561 (11721691_x_at) / RFU ANKRD19P (11752326_a_at) / Fold change /veh ANKRD19P (11752326_a_at) / RFU OR2T12 /// OR2T33 /// OR2T8 (11738714_s_at) / Fold change /veh OR2T12 /// OR2T33 /// OR2T8 (11738714_s_at) / RFU VCAN (11748164_a_at) / Fold change /veh VCAN (11748164_a_at) / RFU JSRP1 (11732532_at) / Fold change /veh JSRP1 (11732532_at) / RFU KRTAP10-11 (11738290_x_at) / Fold change /veh KRTAP10-11 (11738290_x_at) / RFU MYO3A (11730013_a_at) / Fold change /veh MYO3A (11730013_a_at) / RFU EBF3 (11725865_a_at) / Fold change /veh EBF3 (11725865_a_at) / RFU CAMK2N1 (11719241_x_at) / Fold change /veh CAMK2N1 (11719241_x_at) / RFU C5orf56 (11738088_a_at) / Fold change /veh C5orf56 (11738088_a_at) / RFU OLFML3 (11715873_a_at) / Fold change /veh OLFML3 (11715873_a_at) / RFU LOC100653217 /// NTM (11731650_a_at) / Fold change /veh LOC100653217 /// NTM (11731650_a_at) / RFU MAPK11 (11762145_a_at) / Fold change /veh MAPK11 (11762145_a_at) / RFU FIZ1 (11724087_x_at) / Fold change /veh FIZ1 (11724087_x_at) / RFU OASL (11726364_x_at) / Fold change /veh OASL (11726364_x_at) / RFU SOX15 (11748057_x_at) / Fold change /veh SOX15 (11748057_x_at) / RFU CD79A (11719716_a_at) / Fold change /veh CD79A (11719716_a_at) / RFU HIST1H1D (11736915_at) / Fold change /veh HIST1H1D (11736915_at) / RFU CASKIN2 (11723855_a_at) / Fold change /veh CASKIN2 (11723855_a_at) / RFU LOC730098 (11760151_x_at) / Fold change /veh LOC730098 (11760151_x_at) / RFU OR4N2 (11742367_at) / Fold change /veh OR4N2 (11742367_at) / RFU PRRT2 (11749266_a_at) / Fold change /veh PRRT2 (11749266_a_at) / RFU SNX32 (11753110_a_at) / Fold change /veh SNX32 (11753110_a_at) / RFU CDHR5 (11726645_a_at) / Fold change /veh CDHR5 (11726645_a_at) / RFU RCAN1 (11760418_a_at) / Fold change /veh RCAN1 (11760418_a_at) / RFU FAM167A (11723789_a_at) / Fold change /veh FAM167A (11723789_a_at) / RFU FAM26E (11764081_at) / Fold change /veh FAM26E (11764081_at) / RFU ISYNA1 (11749810_s_at) / Fold change /veh ISYNA1 (11749810_s_at) / RFU ACY1 (11761880_at) / Fold change /veh ACY1 (11761880_at) / RFU 11764098_at / Fold change /veh 11764098_at / RFU SAMD14 (11745864_x_at) / Fold change /veh SAMD14 (11745864_x_at) / RFU NPB (11741838_a_at) / Fold change /veh NPB (11741838_a_at) / RFU TMPRSS6 (11731388_a_at) / Fold change /veh TMPRSS6 (11731388_a_at) / RFU KRTAP10-2 (11738614_at) / Fold change /veh KRTAP10-2 (11738614_at) / RFU ARHGAP8 /// PRR5-ARHGAP8 (11727945_x_at) / Fold change /veh ARHGAP8 /// PRR5-ARHGAP8 (11727945_x_at) / RFU KRTAP5-7 /// NADSYN1 (11734609_at) / Fold change /veh KRTAP5-7 /// NADSYN1 (11734609_at) / RFU RASL12 (11751679_a_at) / Fold change /veh RASL12 (11751679_a_at) / RFU CDKN2B (11736163_a_at) / Fold change /veh CDKN2B (11736163_a_at) / RFU PRF1 (11729649_at) / Fold change /veh PRF1 (11729649_at) / RFU, ZNF638 /// ZNF638-IT1 / Fold change vs veh, ZNF638 /// ZNF638-IT1 / RFU, PANK3 / Fold change vs veh, PANK3 / RFU, SH3YL1 / Fold change vs veh, SH3YL1 / RFU, ZEB2 / Fold change vs veh, ZEB2 / RFU, NRIP1 / Fold change vs veh, NRIP1 / RFU, PTTG1IP / Fold change vs veh, PTTG1IP / RFU, CAPN2 / Fold change vs veh, CAPN2 / RFU, MED14 / Fold change vs veh, MED14 / RFU, SNORA58 / Fold change vs veh, SNORA58 / RFU, C1orf63 / Fold change vs veh, C1orf63 / RFU, LRRFIP1 / Fold change vs veh, LRRFIP1 / RFU, NDUFAF7 / Fold change vs veh, NDUFAF7 / RFU, SLC12A2 / Fold change vs veh, SLC12A2 / RFU, IBTK / Fold change vs veh, IBTK / RFU, ESF1 / Fold change vs veh, ESF1 / Fold change vs veh, TMEM50B / RFU, TAOK1 / Fold change vs veh, TAOK1 / RFU, ACBD3 / Fold change vs veh, ACBD3 / RFU, TMA16 / Fold change vs veh, TMA16 / RFU, RWDD3 / Fold change vs veh, RWDD3 / RFU, BCAT1 / Fold change vs veh, BCAT1 / RFU, EDEM3 / Fold change vs veh, EDEM3 / RFU, TMEM33 / Fold change vs veh, TMEM33 / RFU, WDR75 / Fold change vs veh, WDR75 / RFU, AHCTF1 / Fold change vs veh, AHCTF1 / RFU, TFRC / Fold change vs veh, TFRC / RFU, ZDHHC17 / Fold change vs veh, ZDHHC17 / RFU, NOM1 / Fold change vs veh, NOM1 / RFU, ARL8B / Fold change vs veh, ARL8B / RFU, ZBTB11 / Fold change vs veh, ZBTB11 / RFU, TAMM41 / Fold change vs veh, TAMM41 / RFU, KIAA1704 /// LOC100996395 / Fold change vs veh, KIAA1704 /// LOC100996395 / RFU, ING1 / Fold change vs veh, ING1 / RFU, TRMT61B / Fold change vs veh, TRMT61B / RFU, FUBP3 / Fold change vs veh, FUBP3 / RFU, TP53 / Fold change vs veh, TP53 / RFU, TNKS2 / Fold change vs veh, TNKS2 / RFU, ZFP14 / Fold change vs veh, ZFP14 / RFU, ACTR2 / Fold change vs veh, ACTR2 / RFU, PPP3R1 / Fold change vs veh, PPP3R1 / RFU, PIK3R1 / Fold change vs veh, PIK3R1 / RFU, HNRNPA1 / Fold change vs veh, HNRNPA1 / RFU, RNF170 / Fold change vs veh, RNF170 / RFU, ZNF28 / Fold change vs veh, ZNF28 / RFU, RNGTT / Fold change vs veh, RNGTT / RFU, OGT / Fold change vs veh, OGT / RFU, BRD1 / Fold change vs veh, BRD1 / RFU, MARS / Fold change vs veh, MARS / RFU, ZNF655 / Fold change vs veh, ZNF655 / RFU, FAHD1 / Fold change vs veh, FAHD1 / RFU, BDP1 / Fold change vs veh, BDP1 / RFU, LRRCC1 / Fold change vs veh, LRRCC1 / RFU, ARID1A / Fold change vs veh, ARID1A / RFU, ZNF146 / Fold change vs veh, ZNF146 / RFU, ZNF330 / Fold change vs veh, ZNF330 / RFU, GPN3 / Fold change vs veh, GPN3 / RFU, C9orf123 / Fold change vs veh, C9orf123 / RFU, N4BP2L2 / Fold change vs veh, N4BP2L2 / RFU, ARFIP1 / Fold change vs veh, ARFIP1 / RFU, FAM179B / Fold change vs veh, FAM179B / RFU, BCL10 / Fold change vs veh, BCL10 / RFU, UHRF1BP1L / Fold change vs veh, UHRF1BP1L / RFU, BET1 / Fold change vs veh, BET1 / RFU, CNOT2 / Fold change vs veh, CNOT2 / RFU, ZNF268 / Fold change vs veh, ZNF268 / Fold change vs veh, ZNF507 / RFU, DGCR2 / Fold change vs veh, DGCR2 / RFU, WDSUB1 / Fold change vs veh, WDSUB1 / Fold change vs veh, HSP90B1 /// MIR3652 / RFU, ADSS / Fold change vs veh, ADSS / RFU, GK / Fold change vs veh, GK / RFU, ZNF148 / Fold change vs veh, ZNF148 / RFU, TAF9 / Fold change vs veh, TAF9 / RFU, SLC1A5 / Fold change vs veh, SLC1A5 / RFU, SLMO2 / Fold change vs veh, SLMO2 / RFU, ABCC4 / Fold change vs veh, ABCC4 / RFU, LOC101060439 /// RAP1B / Fold change vs veh, LOC101060439 /// RAP1B / RFU, RFX7 / Fold change vs veh, RFX7 / RFU, GTPBP10 / Fold change vs veh, GTPBP10 / RFU, CNEP1R1 / Fold change vs veh, CNEP1R1 / RFU, BIVM-ERCC5 /// ERCC5 / Fold change vs veh, BIVM-ERCC5 /// ERCC5 / RFU, ILF3 / Fold change vs veh, ILF3 / RFU 11762660_at / Fold change /veh 11762660_at / RFU VCAN (11757783_s_at) / Fold change /veh VCAN (11757783_s_at) / RFU DDX43 (11728927_at) / Fold change /veh DDX43 (11728927_at) / RFU KRT8 (11758188_x_at) / Fold change /veh KRT8 (11758188_x_at) / RFU NKD1 (11759106_at) / Fold change /veh NKD1 (11759106_at) / RFU SRD5A1 (11742802_a_at) / Fold change /veh SRD5A1 (11742802_a_at) / RFU TPSAB1 /// TPSB2 (11721975_s_at) / Fold change /veh TPSAB1 /// TPSB2 (11721975_s_at) / RFU GSTM3 (11746129_a_at) / Fold change /veh GSTM3 (11746129_a_at) / RFU IL23R (11737362_x_at) / Fold change /veh IL23R (11737362_x_at) / RFU TMEM51 (11727254_a_at) / Fold change /veh TMEM51 (11727254_a_at) / RFU PIWIL2 (11732686_x_at) / Fold change /veh PIWIL2 (11732686_x_at) / RFU ORM1 (11744905_x_at) / Fold change /veh ORM1 (11744905_x_at) / RFU CCDC152 (11743942_at) / Fold change /veh CCDC152 (11743942_at) / RFU ECM1 (11717891_a_at) / Fold change /veh ECM1 (11717891_a_at) / RFU IL23R (11748794_a_at) / Fold change /veh IL23R (11748794_a_at) / RFU TNFAIP8L3 (11732012_x_at) / Fold change /veh TNFAIP8L3 (11732012_x_at) / RFU MBOAT4 (11741988_at) / Fold change /veh MBOAT4 (11741988_at) / RFU 11764193_at / Fold change /veh 11764193_at / RFU TMEM53 (11763286_at) / Fold change /veh TMEM53 (11763286_at) / RFU MAGEB2 (11727129_at) / Fold change /veh MAGEB2 (11727129_at) / RFU TMEM200A (11744735_a_at) / Fold change /veh TMEM200A (11744735_a_at) / RFU CCDC152 (11751479_a_at) / Fold change /veh CCDC152 (11751479_a_at) / RFU FAM211A (11726209_a_at) / Fold change /veh FAM211A (11726209_a_at) / RFU RGS16 (11746705_a_at) / Fold change /veh RGS16 (11746705_a_at) / RFU VCAN (11755009_s_at) / Fold change /veh VCAN (11755009_s_at) / RFU RHOB (11743442_s_at) / Fold change /veh RHOB (11743442_s_at) / RFU RGS16 (11720943_a_at) / Fold change /veh RGS16 (11720943_a_at) / RFU RGS16 (11720944_at) / Fold change /veh RGS16 (11720944_at) / RFU, VPS4B / Fold change vs veh, VPS4B / RFU, CREB1 / Fold change vs veh, CREB1 / RFU, DNAJC13 / Fold change vs veh, DNAJC13 / RFU, GNAQ / Fold change vs veh, GNAQ / RFU, CDK5R1 / Fold change vs veh, CDK5R1 / RFU, ZRANB3 / Fold change vs veh, ZRANB3 / RFU, CUL4A / Fold change vs veh, CUL4A / RFU, CCNY / Fold change vs veh, CCNY / RFU, UFL1 / Fold change vs veh, UFL1 / RFU, COG3 / Fold change vs veh, COG3 / RFU, DIAPH2 / Fold change vs veh, DIAPH2 / RFU, SKA2 / Fold change vs veh, SKA2 / RFU, AFF3 / Fold change vs veh, AFF3 / RFU, LMF1 / Fold change vs veh, LMF1 / RFU, IPO11 / Fold change vs veh, IPO11 / RFU, DFFB / Fold change vs veh, DFFB / RFU, FOXP1 / Fold change vs veh, FOXP1 / RFU, CARD8 / Fold change vs veh, CARD8 / RFU, STRN3 / Fold change vs veh, STRN3 / RFU, ADK / Fold change vs veh, ADK / RFU, RASSF2 / Fold change vs veh, RASSF2 / RFU, WIPF1 / Fold change vs veh, WIPF1 / RFU, LARP1B / Fold change vs veh, LARP1B / RFU, RASA1 / Fold change vs veh, RASA1 / RFU, RB1 / Fold change vs veh, RB1 / RFU, PPFIA1 / Fold change vs veh, PPFIA1 / RFU, MAT2A / Fold change vs veh, MAT2A / RFU, CCT5 / Fold change vs veh, CCT5 / RFU, WDR92 / Fold change vs veh, WDR92 / RFU, CUX1 / Fold change vs veh, CUX1 / RFU, TTC7A / Fold change vs veh, TTC7A / RFU, TMEM135 / Fold change vs veh, TMEM135 / RFU, DEPTOR / Fold change vs veh, DEPTOR / RFU, CPM / Fold change vs veh, CPM / RFU, DNAJB6 / Fold change vs veh, DNAJB6 / RFU, CACNA2D3 / Fold change vs veh, CACNA2D3 / RFU, DTX4 / Fold change vs veh, DTX4 / RFU, TFCP2 / Fold change vs veh, TFCP2 / RFU, GMCL1 /// GMCL1P1 / Fold change vs veh, GMCL1 /// GMCL1P1 / RFU, AEBP2 / Fold change vs veh, AEBP2 / RFU, SNHG1 /// SNORD22 /// SNORD25 /// SNORD26 /// SNORD27 /// SNORD28 /// SNORD29 /// SNORD31 / Fold change vs veh, SNHG1 /// SNORD22 /// SNORD25 /// SNORD26 /// SNORD27 /// SNORD28 /// SNORD29 /// SNORD31 / Fold change (Aza/veh), C12orf56 (ProbeSet 11735607_a_at) / Fold change (ACY-1035/veh), C12orf56 (ProbeSet 11735607_a_at) / Fold change (Aza/veh), FGFR1OP (ProbeSet 11751329_s_at) / Fold change (ACY-1035/veh), FGFR1OP (ProbeSet 11751329_s_at) / Fold change (Aza/veh), VPS36 (ProbeSet 11739960_a_at) / Fold change (ACY-1035/veh), VPS36 (ProbeSet 11739960_a_at) / RFU SYPL1 (11715823_x_at) / Fold change /veh SYPL1 (11715823_x_at) / RFU IGFBP7 (11715501_s_at) / Fold change /veh IGFBP7 (11715501_s_at) / RFU REEP3 (11722064_at) / Fold change /veh REEP3 (11722064_at) / RFU IGLL1 (11728026_x_at) / Fold change /veh IGLL1 (11728026_x_at): dose or concentration left out as unconfirmed. Conditions: ProbeSet 11726661_s_at; LIST B.

Take `Nc1ncn([C@@H]2O[C@H](CO)[C@@H](O)[C@H]2O)c(=O)n1` [azacitidine]: the “RFU, GPN3” value turned out to be 248.57 RFU.
